Test results published in a melting point compilation (Tetko et al.; mined from patent text by program, amines drawn as free bases though some values may be those of a salt).

SMILES | melting point [°C]
CN(C)S(=O)(=O)N(c1ccc(C(=O)Nc2ccc(Br)cc2)cc1)C1OC(=O)c2ccccc21 (stereo unspecified) | 244 to 246
CN(Cc1ccccc1)C(=O)C[C@@H](Cc1ccccc1)C(=O)O | 119 to 121
O=C(c1cc2cc3oc(=O)[nH]c3cc2o1)N1CCC(OCc2ccccc2)CC1 | 217 to 219
O[C@@H]1c2ccccc2C=C[C@H]1NCc1ccccc1 (relative stereo) | 125 to 126
CN(C)c1ccccc1SCc1noc(CSc2ccc(Br)cc2)n1 | 78
CC(C(N)=O)c1ccc2c(c1)C(=O)Cc1ccccc1O2 (stereo unspecified) | 154 to 155
CCN(CCCc1ccccc1)[C@H]1CC[C@H](c2ccc(O)cc2)CC1 | 163 to 166
CC(n1cncn1)C(O)(Cn1cncn1)c1ccc(F)cc1F (stereo unspecified) | 115 to 116
O=C1CCCN(C(=O)c2ccc([N+](=O)[O-])cc2)c2cccnc21 | 188 to 190
CCCc1cc(=O)c(C(=O)OC)c(C)[nH]1 | 171 to 172
COc1ccccc1-c1cc(N)c(S(N)(=O)=O)cc1C | 172 to 175
CNC(=NCCCSCn1cncc1C)NC#N | 156 to 158
O=C(Nc1cccc(Cc2nnn[nH]2)c1)C(F)(F)C(F)(F)C(F)(F)C(F)(F)C(F)(F)C(F)(F)C(F)(F)F | 163 to 166
CNc1ccc(Cl)cc1-c1cc2ccccc2[nH]1 | 123 to 126
Cc1ccc(=NC(=O)C(F)(F)F)n(-c2cccc(C(F)(F)F)c2)c1 | 115
CN1CC2c3ccc(C=O)n3Cc3ccccc3N2C(=O)C1=O (stereo unspecified) | 300 to 302
CN1C(C(=O)OC2CCCCC2)=C(O)c2ccccc2S1(=O)=O | 112
CC(C)(C)CCn1c(=O)c(=NNc2ccccc2)c(=O)n(-c2ccccc2F)c2ccccc21 | 112 to 114
C=CC[C@H](C(N)=O)[C@@H](CC(C)C)C(=O)NC1N=C(N(C)C)c2ccccc2N(C)C1=O (stereo partly specified) | 230 to 232
Cc1[nH]cnc1/C=C/C(=O)c1cc2ccccc2s1 | 188 to 190
CCOC(=O)C(=Cc1cnccc1OC)N=[N+]=[N-] | 92 to 95

SMILES | melting point [°C]
Cc1nc(C#CCCc2nc3ccccc3o2)c[nH]1 | 152 to 154
CN1CCCCc2cc([N+](=O)[O-])ccc21 | 52 to 54
COc1ccc(CN2C(=O)C3CC(c4ccccc4)(C3)C2=O)cc1 | 87 to 88
CCCc1nc2ccnn2c(OC)c1Cc1ccc(-c2ccccc2C#N)cc1 | 110
C=Cc1ccc(Nc2nc(Cl)nc(Cl)n2)cc1 | 152 to 154
CCOC(=O)c1ccc(OCC(O)CC)cc1 (stereo unspecified) | 52 to 52.5
COc1ccc(Cl)c(CBr)c1 | 51 to 52
O=[N+]([O-])c1cc([N+](=O)[O-])c(N2CCSCC2)c(C(F)(F)F)c1 | 120 to 121
CNC(=NCCSCc1[nH]cnc1C)P(=O)(O)OC | 170 to 171
CCCOc1ccccc1C1=NC(=O)C2=NC(C(F)(F)F)=NC2=N1 | 255 to 260
O=c1c2c(Cc3cccc(O)c3)n[nH]c2c2cccnc2n1-c1ccccc1 | 276 to 278
Nc1ccc2[nH]nc(Nc3nc(-c4ccccc4C(F)(F)F)nc4ccccc34)c2c1 | 221 to 223
COc1ccc(CC(=O)c2cccs2)cc1 | 77 to 78.4
CCC(CC)C(NS(=O)(=O)c1ccc(Cl)s1)c1ccnn1S(=O)(=O)c1ccc(C)cc1 (stereo unspecified) | 146 to 148
COc1cc2[nH]cc(C(=O)Nc3cccnc3)c2cc1Br | > 250
CCSc1cn(C)cc(-c2ccccc2)c1=O | 94 to 95
CC(=O)Oc1c(C2CCN(CCCCNC(=O)c3ccc(-c4ccc(C#N)cc4)cc3)CC2)ccc2ccccc12 | 115 to 120
CC(C)c1ccc(C(=O)C2=C(O)C(=O)N(c3ccc(Sc4ccc([N+](=O)[O-])cc4)nn3)C2c2ccc(OC(F)(F)F)cc2)cc1 (stereo unspecified) | 194 to 209
COc1ccc2[nH]cc(CCNC=O)c2c1Cl | 120 to 121
Cc1nc(C#N)ccc1O | 201 to 205
